Where two headings read alike, the source gives them in different places.
Columns and labels:
[1] = cited from earlier work
[2] = cited from earlier work; remark: listed apart in the source
[3] = tested on: rainbow trout (Oncorhynchus mykiss); experiment: Surface area-normalized mucus-water and gill-water distribution coefficients; details: in vivo
Experimental: For each mixture, the syringe pump was started in an aquarium containing no fish. After 16 h, to allow the concentrations to stabilize, 12 rainbow trout were added. After 7 d of exposure, the fish in the exposure aquaria as well as several unexposed (control) fish were sacrificed. Following stunning, blood was collected with a heparinized syringe from the caudal vein into a 2 mL Eppendorf tube. The fish were weighed and photographed, and the length was measured. The outer surface area of the fish was estimated from the fish weight according to O’Shea et al.[27] [drawing 1] 1
The gill surface area was estimated from the fish weight according to the equation specific for O. mykiss from a report by Hughes,[28] taken from ref ([29]) [drawing 2] 2
Because the mass of extracted mucus was not determined, the concentrations in mucus were normalized to the estimated fish’s total surface area (eq 1) excluding the head, which was not rinsed.
Surface area-normalized gill–water distribution coefficients (DG–W) were calculated from the average concentrations measured in gills and water, and a calculated gill surface based on rainbow trout specific scaling factors (eq 2). […] Unlike the skin, the gills were not rinsed with methanol, so the gill samples included gill mucus.

Danio rerio = details: ref REACH dossiers (European Chemicals Agency); cited from earlier work
[4] = tested on: rainbow trout (Oncorhynchus mykiss); experiment: Contribution of tissues to fish body burden; type: in vivo; details: for Contribution of Other tissue (all apart from blood, liver, gills and skin; muscle concentration assumed) to body burden: fraction; for % contribution to body burden, Gills / % contribution to body burden, Liver / % contribution to body burden, Mucus / % contribution to body burden, Muscle / % contribution to body burden, Skin / Share of body burden in interior tissues (blood, liver, and muscle) / Share of body burden present in gills and mucus: in vivo
Excerpt: To calculate the quantity of the test chemical in the different tissues, the amount of each tissue in the fish was estimated and multiplied by the concentration in that tissue. The test chemical quantities in the different tissues were then summed to give the body burden in each fish. The total weight of the fish and the weight of the liver and gills were available from the dissection (Table S16). For skin and mucus, the estimated outer surface area of the fish was used. We note that the distinction between mucus and skin is an operational one determined by the extraction method; mucus can be viewed as a more readily extracted fraction of the test chemical residues at the fish surface. The volume of blood was taken as 0.0495 mL g^–1 fish.[30] The remaining tissue (difference between the weight of the whole fish and the weight of liver, gills, skin, and blood) was assumed to have the concentration measured in the muscle. The contribution of the different tissues to the body burden is given for each fish in Table S17, and the average contribution across all fish is plotted in Figure 1. All of the tissues, with the exception of blood, contribute at least 10% of the body burden for at least half of the test chemicals. There is no consistent negative correlation between the fraction of chemical associated with blood, muscle, and liver (tissues where the residue originates entirely from systemic uptake) and alkyl chain length (a measure of hydrophobicity). Thus, although adsorption to fish surfaces appears to play a significant role, its contribution to body burden cannot be simply predicted from surfactant hydrophobicity. In the following, we examine uptake in individual tissues.

Salmo trutta = tested on: Salmo trutta; parameters: method as in REACH dossiers (European Chemicals Agency); details: ref REACH dossiers (European Chemicals Agency); cited from earlier work
killifish = details: cited from earlier work
[5] = tested on: bluegill fish (Lepomis macrochirus); details: cited from earlier work
[6] = secondary amines, no reference given

Structure (SMILES)	Gill-water distribution coefficient (DG-W) [3] [mLcm-2]	Mucus-water distribution coefficient (DMuc-W) [3] [mL cm-2]	% contribution to body burden, Gills [4] [%]	% contribution to body burden, Liver [4] [%]	% contribution to body burden, Mucus [4] [%]	% contribution to body burden, Muscle [4] [%]	% contribution to body burden, Skin [4] [%]	further results
CN[C@H]1CC[C@@H](c2ccc(Cl)c(Cl)c2)c2ccccc21 [sertraline, reference compound]								log DMW ([1]; membrane–water distribution coefficient): 4.3; pKa [2, 6]: > 9.5
CCCCCCCCCCCCCCN(C)C [T14, N,N-dimethyltetradecylamine]	150	51	34	7	11	22	24	96h-LC50 (Danio rerio): 0.35 µg/mL; Contribution of Other tissue (all apart from blood, liver, gills and skin; muscle concentration assumed) to body burden ([4]; Fish #1): 0.22; Contribution of Other tissue (all apart from blood, liver, gills and skin; muscle concentration assumed) to body burden ([4]; Fish #2): 0.21; Contribution of Other tissue (all apart from blood, liver, gills and skin; muscle concentration assumed) to body burden ([4]; Fish #3): 0.24; Contribution of Other tissue (all apart from blood, liver, gills and skin; muscle concentration assumed) to body burden ([4]; Fish #4): 0.21; Contribution of Other tissue (all apart from blood, liver, gills and skin; muscle concentration assumed) to body burden ([4]; Fish #5): 0.20; Contribution of Other tissue (all apart from blood, liver, gills and skin; muscle concentration assumed) to body burden ([4]; Fish #6): 0.24; Contribution of Other tissue (all apart from blood, liver, gills and skin; muscle concentration assumed) to body burden ([4]; Mean): 0.22; 96h-LC50 (Salmo trutta): 0.18 µg/mL
CN(C)CCC=C1c2ccccc2CCc2ccccc21 [amitriptyline, reference compound]								log DMW [1]: 3.9; pKa [2]: […]
COc1ccc([C@@H]2Sc3ccccc3N(CCN(C)C)C(=O)[C@@H]2OC(C)=O)cc1 [diltiazem]								Vd, plasma concentration based (killifish): 0.19–0.28 L kg^–1
CCCCCCCCCCCCNC [S12, N-methyldodecylamine]	13.3	5.4	20	17	7	32	21	Share of body burden in interior tissues (blood, liver, and muscle) [4]: more than half
CCCCCCCCCC[N+](C)(C)CCCCCCCCCC [didecyldimethylammonium chloride]								bioconcentration factor (BCF) ([5]; 14C-labeled): 81 L kg^–1; 14C residues in the skin, times higher than in edible tissues [5]: 2–6
CCCCCCCCCCN(C)C [T10, N,N-dimethyldecylamine]	1.95	1.28	14	18	8	38	18	96h-LC50 (Danio rerio): 1.13 µg/mL; Contribution of Other tissue (all apart from blood, liver, gills and skin; muscle concentration assumed) to body burden ([4]; Fish #1): 0.54; Contribution of Other tissue (all apart from blood, liver, gills and skin; muscle concentration assumed) to body burden ([4]; Fish #2): 0.33; Contribution of Other tissue (all apart from blood, liver, gills and skin; muscle concentration assumed) to body burden ([4]; Fish #3): 0.35; Contribution of Other tissue (all apart from blood, liver, gills and skin; muscle concentration assumed) to body burden ([4]; Fish #4): 0.29; Contribution of Other tissue (all apart from blood, liver, gills and skin; muscle concentration assumed) to body burden ([4]; Fish #5): 0.38; Contribution of Other tissue (all apart from blood, liver, gills and skin; muscle concentration assumed) to body burden ([4]; Fish #6): 0.37; Contribution of Other tissue (all apart from blood, liver, gills and skin; muscle concentration assumed) to body burden ([4]; Mean): 0.38; Share of body burden in interior tissues (blood, liver, and muscle) [4]: more than half; 96h-LC50 (Salmo trutta): 1.8 µg/mL
CCCCCCCCCCCCCCCCNC [S16, N-methylhexadecylamine]	300	27	53	12	4	16	14	Share of body burden present in gills and mucus [4]: at least 50%
CCCCCCCCCCCCCC[N+](C)(C)C [Q14, N,N,N-trimethyl-1-tetradecylammonium]	9.5	1.40	70	5	10	7	8	DG–W factor lower than tertiary amine of the same alkyl chain length [3]: 18; DMuc–W higher than Q10 [3]: 2.6 log units; DMuc–W times lower than tertiary amine with the corresponding alkyl chain length [3]: 37; Share of body burden present in gills and mucus [4]: at least 50%
CNCCC(Oc1ccc(C(F)(F)F)cc1)c1ccccc1 (centres unmarked) [fluoxetine, reference compound]								pKa [2, 6]: > 9.5
CCCCCCCCCC[N+](C)(C)C [Q10, N,N,N-trimethyl-1-decylammonium]	0.0064	0.0035	23	3	11	37	24	DG–W factor lower than tertiary amine of the same alkyl chain length [3]: 300; DMuc–W times lower than tertiary amine with the corresponding alkyl chain length [3]: 360
